Values joined by “and” are separate entries in the source; they are usually repeats but may differ in a detail not shown here. Identical values can stand only once. “Also recorded” adds a separate entry of the source. Like-named read-outs stand apart in the source and are kept apart here.
Tests used:
[1] = system: VEGF-induced proliferation of HUVEC cells; assay: VEGF-induced HUVEC proliferation, MTT assay; type: cell-based, human; conditions: for inhibition at 20 µM: Homo sapiens, HUVEC, 48 h, read-out: % Inhibition of Proliferation; for inhibition of VEGF-induced HUVEC proliferation (in words): 20 μM
Experimental: The assay was performed as follows. Vascular endothelial growth factor (VEGF, Cat #SRP3182) was purchased from Sigma. […] Stock solutions of all compounds were prepared in DMSO and were serially diluted for cell culture treatment maintaining the final DMSO concentration at less than 1%. Cell proliferation of HUVECs was evaluated through the MTT (3-[4, 5-dimethylthiazol-2-yl]-2, 5-dimethyltetrazolium bromide) colorimetric assay, as previously described.^28 The HUVECs were seeded at a density of 10,000 cells/well in 24 well plates in serum-containing medium and cultured overnight. Cells were starved with 300 μL of assay media (0.1% BSA+0.1% FBS in basal medium) for 24 h. Then, cells were treated with 500 μL of assay medium (control group), VEGF (10 ng/mL, positive control group) or VEGF along with compounds (20 μM). After 48 h of culture, 50 μL of MTT stock (5 mg/mL in PBS) was added to each well and incubated for 2 h at 37° C. to allow the formation of dark blue formazan crystals in the metabolically active cells. The medium was removed, the cells were washed with PBS (pH 7.4), and 100 μL of acidified isopropanol (0.33 mL HCl in 100 mL isopropanol) was added to each well and incubated for 5 min with thorough agitation to solubilize the formazan crystals. An equal volume of the solution was transferred to a 96-well plate and the absorbance was immediately measured using a microplate reader at a wavelength of 570 nm.

[2] = system: 22Rv1 prostate cancer cells; assay: MTS cytotoxicity assay in 22Rv1 prostate cancer cells; conditions: Homo sapiens, 22Rv1, 48 h, read-out: reduction of 22Rv1 cell viability
Experimental: The assay was performed as follows. To determine the cell growth inhibition ability of the synthesized compounds the (3-(4,5-dimethylthiazol-2-yl)-5-(3-carboxymethoxyphenyl)-2-(4-sulfophenyl)-2H-tetrazolium) (MTS) assay used according to the manufacturer's recommended protocol. Stock solutions of the synthesized compounds were prepared in DMSO. Cells were seeded at a density of 1×10^5 cells in 96-well plates. After 24 hours, cells were treated at the indicated concentrations of test compounds, limiting the final DMSO concentration to less than 1%. After incubation at 37° C. in an environment of 5% CO2 for 48-72 hours, 10 μL of MTS reagent (CellTiter 96© AQueous One Solution Reagent) was added to each well and incubated at the above mentioned conditions for 2-4 hr. Absorbance was recorded at 490 nm on a BioTek Synergy Mx multimode plate reader and the viability of cells were plotted as percentage of controls.

[3] = target: T1, Mitochondrial respiratory complex II (Rattus norvegicus, UniProt P21913+Q641Z9+Q6PCT8+Q920L2); assay: Mitochondrial respiratory complex II inhibition assay; type: biochemical; conditions: 100 μM, relative to DMSO control; for inhibition at 100 µM: read-out: inhibition of CII
T1 construct: measured spectrophotometrically using isolated rat heart mitochondria; from tissue; host or cells: rat heart mitochondria / sub-mitochondrial particles
Experimental: The assay was performed as follows. Mitochondria were isolated either from fresh rat hearts or by differential centrifugation in sucrose-based buffer as previously described.^24 Complex II enzymatic activity was determined spectrophotometrically as the rate of succinate-driven, co-enzyme Q2-linked reduction of dichlorophenolindophenol (DCPIP).^49 Mitochondria or sub-mitochondrial particles were incubated in phosphate buffer (pH 7.4) containing 40 μM DCPIP, 1 mM KCN, 10 μM rotenone, and 50 μM co-enzyme Q2. The rate of reduction of DCPIP to DCPIPH2 was followed at […] (ε=21,000 M-1). Varying amounts of succinate and inhibitors were used to determine an IC50 value. At the end of each run thenoyltrifluoroacetone (1 mM) was added and the residual TTFA-insensitive rate subtracted.

[4] = 20 μM compound, VEGF 10 ng/mL, relative to VEGF treated cells, mean ± SEM n = 3

T1 sequence (Q920L2 35-656): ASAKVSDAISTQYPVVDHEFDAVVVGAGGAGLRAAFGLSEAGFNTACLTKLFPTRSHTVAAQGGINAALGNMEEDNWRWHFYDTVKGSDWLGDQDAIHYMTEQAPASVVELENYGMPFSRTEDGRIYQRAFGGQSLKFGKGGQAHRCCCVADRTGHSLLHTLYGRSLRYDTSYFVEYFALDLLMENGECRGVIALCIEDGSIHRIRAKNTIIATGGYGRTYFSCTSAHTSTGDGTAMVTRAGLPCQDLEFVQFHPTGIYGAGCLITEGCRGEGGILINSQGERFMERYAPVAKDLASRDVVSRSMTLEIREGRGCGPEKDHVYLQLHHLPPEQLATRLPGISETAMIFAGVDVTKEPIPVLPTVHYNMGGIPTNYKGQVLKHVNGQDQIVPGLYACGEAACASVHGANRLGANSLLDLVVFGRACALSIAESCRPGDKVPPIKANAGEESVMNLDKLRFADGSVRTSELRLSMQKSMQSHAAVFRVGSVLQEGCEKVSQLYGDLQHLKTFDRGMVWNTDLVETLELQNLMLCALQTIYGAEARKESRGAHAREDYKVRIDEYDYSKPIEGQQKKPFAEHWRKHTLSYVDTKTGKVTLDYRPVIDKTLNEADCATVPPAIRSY
T1 sequence (P21913 31-282): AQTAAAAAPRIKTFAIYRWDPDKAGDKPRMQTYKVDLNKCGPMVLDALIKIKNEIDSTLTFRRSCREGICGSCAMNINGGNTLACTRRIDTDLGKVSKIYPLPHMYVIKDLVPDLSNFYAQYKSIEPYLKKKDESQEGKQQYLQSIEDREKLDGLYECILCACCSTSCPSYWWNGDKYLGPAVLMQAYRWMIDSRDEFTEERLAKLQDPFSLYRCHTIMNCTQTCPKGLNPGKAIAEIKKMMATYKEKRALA
T1 sequence (Q641Z9 1-169): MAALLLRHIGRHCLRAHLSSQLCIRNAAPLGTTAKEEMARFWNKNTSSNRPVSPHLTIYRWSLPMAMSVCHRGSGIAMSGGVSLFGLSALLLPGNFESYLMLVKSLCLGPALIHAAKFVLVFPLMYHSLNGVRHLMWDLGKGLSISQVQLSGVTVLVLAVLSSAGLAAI
T1 sequence (Q6PCT8 57-159): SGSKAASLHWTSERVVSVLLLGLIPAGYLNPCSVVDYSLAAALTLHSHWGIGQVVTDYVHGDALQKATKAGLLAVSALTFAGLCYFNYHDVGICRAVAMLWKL

Q: For `O=S1(=O)N=C(NCc2ccc(F)cc2)Nc2cc(Cl)ccc21` [Compound 17b, 6-chloro-3-((4-fluorobenzyl)amino)-4H-benzo[e][1,2,4]thiadiazine 1,1-dioxide], which inhibition at 20 µM [1, 4] is on record?
A: The inhibition at 20 µM was 0%.

Q: How did the “inhibition of VEGF-induced HUVEC proliferation (in words)” value (“inhibition … (in words)” below) ([1]; VEGF 10 ng/mL) turn out when `O=S1(=O)N=C(NCc2ccccc2)Nc2ccc(Cl)cc21` [Compound 57e, 3-(Benzylamino)-7-chloro-4H-benzo[e][1,2,4]thiadiazine 1,1-dioxide] was run?
A: The value was “suppressed HUVEC proliferation; also recorded: enhanced activity”.

Q: What about the inhibition at 20 µM [1, 4] of the same compound?
A: Its inhibition at 20 µM is 122 ± 9%.

Q: `O=S1(=O)N=C(NCCc2ccccc2)Nc2cc(Cl)ccc21` [Compound 18b, 6-chloro-3-(phenethylamino)-4H-benzo[e][1,2,4]thiadiazine 1,1-dioxide] was tested. Which “inhibition … (in words)” value ([1]; VEGF 10 ng/mL) did it give?
A: The value was “suppressed HUVEC proliferation; also recorded: enhanced activity”.

Q: What about the inhibition at 20 µM [1] of the same compound?
A: The inhibition at 20 µM was 118 ± 12%.

Q: Which inhibition at 20 µM [1, 4] does the source give for `CCNC1=NS(=O)(=O)c2ccccc2N1` [Compound 19d, 3-(ethylamino)-4H-benzo[e][1,2,4]thiadiazine 1,1-dioxide] here?
A: Its inhibition at 20 µM is 81 ± 25%.

Q: How did the cytotoxicity at 100 µM [2] turn out when `O=S1(=O)N=C(NCc2ccc(C(F)(F)F)cc2)Nc2ccc(Br)cc21` [Compound 25c, 7-bromo-3-((4-(trifluoromethyl)benzyl)amino)-4H-benzo[e][1,2,4]thiadiazine 1,1-dioxide] was run?
A: The cytotoxicity at 100 µM was 34%.

Q: With `O=S1(=O)N=C(NCCc2c[nH]c3ccccc23)Nc2cc(Cl)ccc21` [Compound 36b, 3-((2-(1H-indol-3-yl)ethyl)amino)-6-chloro-4H-benzo[e][1,2,4]thiadiazine 1,1-dioxide] as the compound, how does the inhibition at 100 µM [3] read?
A: Its inhibition at 100 µM is 25%.

Q: What about the inhibition at 20 µM [1, 4] of the same compound?
A: The inhibition at 20 µM was 24 ± 38%.

Q: With `O=S1(=O)N=C(NCc2ccc(F)cc2)Nc2ccc(Cl)cc21` [Compound 54e, 7-Chloro-3-((4-fluorobenzyl)amino)-4H-benzo[e][1,2,4]thiadiazine 1,1-dioxide] as the compound, how does the inhibition at 20 µM [1, 4] read?
A: The inhibition at 20 µM was 70 ± 23%.

Q: `COc1ccccc1CNC1=NS(=O)(=O)c2ccc(Cl)cc2N1` [Compound 26b, 6-chloro-3-((2-methoxybenzyl)amino)-4H-benzo[e][1,2,4]thiadiazine 1,1-dioxide] was tested. Which inhibition at 20 µM [1, 4] did it give?
A: The inhibition at 20 µM was 79 ± 26%.

Q: Which inhibition at 100 µM [3] does the source give for `O=S1(=O)N=C(NCc2ccc(C(F)(F)F)cc2)Nc2cc(Cl)ccc21` [Compound 25b, 6-chloro-3-((4-(trifluoromethyl)benzyl)amino)-4H-benzo[e][1,2,4]thiadiazine 1,1-dioxide] here?
A: The inhibition at 100 µM was 19%.

Q: What about the inhibition at 20 µM [1, 4] of the same compound?
A: The inhibition at 20 µM was 1 ± 43%.

Q: `O=S1(=O)N=C(NC2CCCC2)Nc2ccc(F)cc21` [Compound 22a, 7-fluoro-3-(cyclopentylamino)-4H-benzo[e][1,2,4]thiadiazine 1,1-dioxide] was tested. Which “inhibition of CII” value [3] did it give?
A: The value was “inactive”.

Q: For `Cc1ccccc1CNC1=NS(=O)(=O)c2ccc(Cl)cc2N1` [Compound 41b, 6-Chloro-3-((2-methylbenzyl)amino)-4H-benzo[e][1,2,4]thiadiazine 1,1-dioxide], which “inhibition … (in words)” value ([1]; VEGF 10 ng/mL) is on record?
A: The value was “suppressed HUVEC proliferation; also recorded: enhanced activity”.

Q: And the inhibition at 20 µM [1, 4]?
A: The inhibition at 20 µM was 111 ± 9%.

Q: With `CSC1=NS(=O)(=O)c2cc(F)ccc2N1C` [Compound 42a, 7-fluoro-4-methyl-3-(methylthio)-4H-benzo[e][1,2,4]thiadiazine 1,1-dioxide] as the compound, how does the “inhibition … (in words)” value ([1]; VEGF 10 ng/mL) read?
A: Its value is “no appreciable inhibition”.

Q: And the inhibition at 20 µM [1, 4]?
A: The inhibition at 20 µM was 41 ± 30%.

Q: `O=S1(=O)N=C(NCc2ccc(Cl)cc2)Nc2ccc(Br)cc21` [Compound 16c, 7-bromo-3-((4-chlorobenzyl)amino)-4H-benzo[e][1,2,4]thiadiazine 1,1-dioxide dioxide] was tested. Which “inhibition of CII” value [3] did it give?
A: The value was 45%.

Q: `COc1cccc(CNC2=NS(=O)(=O)c3ccc(Cl)cc3N2)c1` [Compound 28b, 6-chloro-3-((3-methoxybenzyl)amino)-4H-benzo[e][1,2,4]thiadiazine 1,1-dioxide] was tested. Which inhibition at 20 µM [1] did it give?
A: Its inhibition at 20 µM is 126 ± 26%.

Q: With `COc1cccc(CCNC2=NS(=O)(=O)c3ccc(Cl)cc3N2)c1` [Compound 40b, 6-chloro-3-((3-methoxyphenethyl)amino)-4H-benzo[e][1,2,4]thiadiazine 1,1-dioxide] as the compound, how does the inhibition at 20 µM [1] read?
A: Its inhibition at 20 µM is 99 ± 22%.

Q: Which inhibition at 20 µM [1, 4] does the source give for `O=S1(=O)N=C(NCc2ccc(F)cc2F)Nc2ccc(Br)cc21` [Compound 29c, 7-bromo-3-((2,4-difluorobenzyl)amino)-4H-benzo[e][1,2,4]thiadiazine 1,1-dioxide] here?
A: Its inhibition at 20 µM is 127%.

Q: Which results are given for `COc1ccc(CNC2=NS(=O)(=O)c3ccc(Cl)cc3N2)cc1` [Compound 20b, 6-chloro-3-((4-methoxybenzyl)amino)-4H-benzo[e][1,2,4]thiadiazine 1,1-dioxide]?
A: inhibition of VEGF-induced HUVEC proliferation (in words) ([1]; VEGF 10 ng/mL): suppressed HUVEC proliferation; also recorded: enhanced activity; inhibition at 20 µM [1, 4]: 132 ± 24%

Q: Which inhibition at 20 µM [1, 4] does the source give for `C=CCNC1=NS(=O)(=O)c2ccc(Cl)cc2N1` [Compound 32b, 3-(allylamino)-6-chloro-4H-benzo[e][1,2,4]thiadiazine 1,1-dioxide] here?
A: The inhibition at 20 µM was 0%.

Q: For `Cc1cccc(CNC2=NS(=O)(=O)c3ccc(Cl)cc3N2)c1` [Compound 42b, 6-Chloro-3-((3-methylbenzyl)amino)-4H-benzo[e][1,2,4]thiadiazine 1,1-dioxide], which “inhibition … (in words)” value ([1]; VEGF 10 ng/mL) is on record?
A: Its value is “suppressed HUVEC proliferation; also recorded: enhanced activity”.

Q: And the inhibition at 20 µM [1]?
A: Its inhibition at 20 µM is 125 ± 10%.

Q: With `O=S1(=O)N=C(NCc2ccc(C(F)(F)F)cc2)Nc2ccc(F)cc21` [Compound 25a, 7-fluoro-3-((4-(trifluoromethyl)benzyl)amino)-4H-benzo[e][1,2,4]thiadiazine 1,1-dioxide] as the compound, how does the “inhibition of CII” value [3] read?
A: The value was 7% and 0%.

Q: For `CSC1=NS(=O)(=O)c2ccc(Cl)cc2N1` [Compound 13b, 6-Chloro-3-methylsulfanyl-4H-1,2,4-benzothiadiazine 1,1-Dioxide], which inhibition at 20 µM [1, 4] is on record?
A: Its inhibition at 20 µM is 21 ± 23%.

Q: Which results are given for `O=S1(=O)N=C(NCCCc2ccccc2)Nc2ccccc21` [Compound 23d, 3-((3-phenylpropyl)amino)-4H-benzo[e][1,2,4]thiadiazine 1,1-dioxide]?
A: inhibition at 100 µM [3]: 0%; inhibition at 20 µM [1, 4]: 39 ± 68%

Q: How did the inhibition at 100 µM [3] turn out when `Cc1ccc(CNC2=NS(=O)(=O)c3cc(F)ccc3N2)cc1` [Compound 27a, 7-fluoro-3-((4-methylbenzyl)amino)-4H-benzo[e][1,2,4]thiadiazine 1,1-dioxide] was run?
A: Its inhibition at 100 µM is 23%.

Q: How did the inhibition at 20 µM [1] turn out when `O=C1Nc2cc(Cl)ccc2S(=O)(=O)N1` [Compound 11b, 6-chloro-3-oxo-3,4-dihydro-2H-1,2,4-benzothiadiazine1,1-dioxide] was run?
A: Its inhibition at 20 µM is 0%.

Q: How did the “inhibition … (in words)” value ([1]; VEGF 10 ng/mL) turn out when `O=S1(=O)N=C(NCc2ccncc2)Nc2ccc(Cl)cc21` [Compound 66e, 7-Chloro-3-((pyridin-4-ylmethyl)amino)-4H-benzo[e][1,2,4]thiadiazine 1,1-dioxide] was run?
A: Its value is “suppressed HUVEC proliferation; also recorded: enhanced activity”.

Q: What about the inhibition at 20 µM [1, 4] of the same compound?
A: Its inhibition at 20 µM is 67 ± 27%.

Q: How did the inhibition at 20 µM [1, 4] turn out when `Cc1ccc(CNC2=NS(=O)(=O)c3ccc(Cl)cc3N2)cc1` [Compound 27b, 6-chloro-3-((4-methylbenzyl)amino)-4H-benzo[e][1,2,4]thiadiazine 1,1-dioxide] was run?
A: The inhibition at 20 µM was 146 ± 18%.

Q: For `CC(C)NC1=NS(=O)(=O)c2ccc(Cl)cc2N1` [Compound 14b, 6-Chloro-3-isopropylamino-4H-1,2,4-benzothiadiazine 1,1-Dioxide], which inhibition at 20 µM [1] is on record?
A: Its inhibition at 20 µM is 146 ± 18%.

Q: For `COc1ccc(CCNC2=NS(=O)(=O)c3cc(F)ccc3N2)cc1` [Compound 9a], which “inhibition … (in words)” value ([1]; VEGF 10 ng/mL) is on record?
A: Its value is “no appreciable inhibition”.

Q: And the inhibition at 20 µM [1]?
A: Its inhibition at 20 µM is 70 ± 22%.

Q: For `O=S1(=O)N=C(NCCc2ccccc2)Nc2ccc(Cl)cc21` [Compound 55e, 7-Chloro-3-(phenethylamino)-4H-benzo[e][1,2,4]thiadiazine 1,1-dioxide], which inhibition at 20 µM [1] is on record?
A: The inhibition at 20 µM was 82 ± 10%.

Q: `O=S1(=O)N=C(NCc2ccc(Cl)cc2)Nc2ccccc21` [Compound 16d, 3-((4-chlorobenzyl)amino)-4H-benzo[e][1,2,4]thiadiazine 1,1-dioxide] was tested. Which “inhibition of CII” value [3] did it give?
A: Its value is “inactive”.

From US20230219912A1, “HALOGENATED BENZOTHIADIAZINES FOR THE TREATMENT OF CANCER” (BOARD OF REGENTS OF THE UNIVERSITY OF NEBRASKA, priority 2020, published 2023)
